The values that follow are results of earlier work, collected in US20260284036A1 (priority 2023, published 2026).

For this series the following is noted: administered orally; significant first-pass metabolism.

On to `C=CCN1CC[C@]23c4c5ccc(O)c4O[C@H]2C(=O)CC[C@@]3(O)[C@H]1C5` [naloxone], for which the apparent bioavailability was 1-2%.
